Data set [1] has as its system rat cortical neurons. In words: Mitochondrial membrane potential (TMRM) in rat cortical neurons. In kind it is cell-based. The text has this: The minimum value after the addition of compound (prior to the addition of FCCP) was taken, and this was expressed as a percentage (using the baseline as 100% and FCCP as 0%) and then normalized to DMSO (100%).
Data set [2] deals with TRIM-CypA (Homo sapiens, UniProt P62937+Q6PIZ9). On the procedure:
Viral supernatant was collected 48 h post-transfection and stored at −80 °C.
To generate CRFK cells stably expressing N-terminally HA-tagged TRIM-CypA from an EXN-based vector, murine leukemia virus (MLV) vector was prepared as above, using pMDG, CMVi MLV gag-pol expression vector, and γ-retroviral expression vector encoding a fusion protein comprising human CypA downstream of owl monkey TRIM5 RBCC (EXN-TRIM-CypA) ([67]). CRFK cells, which are null for TRIM5α activity ([68]), were then transduced with vector, followed by selection of cells in 1 mg/ml G418 (Invitrogen).
Infectivity was measured by flow cytometry 48 h postinfection.

The subject of data set [3] is T cell proliferative response in draining auricular lymph node. In words: In vivo T cell proliferation, oxazolone contact hypersensitivity. More on the design: species or system mouse. As for the experimental part:
The contact sensitizer 4-ethoxymethylene-2-phenyl-2-oxazolin-5-one (oxazolone; Sigma) was dissolved (25 mg/ml) in 4:1 acetone/olive oil. Mice (n = 3/group) received epicutaneous application of either 25 μl of 2.5% oxazolone or acetone/olive oil on the dorsum of the ear on day 0 ([70]). The draining auricular lymph nodes were removed 3 days later, and the induced proliferative response was assessed as described previously. Briefly, 5 × 10^5 cells/well were cultured in RPMI 1640 medium with glutamate (Gibco®, Invitrogen Ltd., Paisley UK), supplemented with 0.5 mM sodium, in round-bottomed 96-well plates overnight at 37 °C in a humidified atmosphere of 5% CO2 in the presence of 1 μCi of [^3H]thymidine (PerkinElmer Life Sciences) per well. DNA synthesis was estimated using β-scintillation counting as above. […] Results are expressed as mean ± S.E. thymidine incorporation counts/min.

For data set [4], the system named is mitochondria of rat cortical neurons and isolated liver mitochondria. In words: Mitochondrial functional parameters (membrane potential, oxygen consumption, ATP production) in cultured rat neurons and isolated mitochondria. The data set is classed as cell-based. On the procedure: Oxygen consumption was measured using Oroboros Oxygraph-2K as described previously ([62]). Prior to the assay, the Oxygraph chambers were calibrated with Miro5 buffer (0.5 mM EGTA, 3 mM MgCl2·6H2O, 60 mM potassium lactobionate, 20 mM taurine, 10 mM KH2PO4, 20 mM HEPES, 110 mM sucrose, 1 g/liter BSA (essentially fatty acid-free)). Isolated mitochondria were suspended in Miro5 (at 100–200 μg/ml) and loaded into the chamber together with substrates (malate, 2 mM; glutamate, 10 mM), and the O2 flow signal was allowed to stabilize to the basal respiration rate (∼10 min). […] Data were analyzed by subtracting the antimycin A respiration rate to give mitochondrial specific O2 flow and were then expressed as a percentage of the basal O2 flow.
Rat cortical neurons, cultured for 8–9 days, were incubated for 40 min at 37 °C with the cell-permeant cationic dye tetramethylrhodamine methyl ester (25 nM), and fluorescence was measured using the ImageXpress Micro XL system (Molecular Devices). […] The minimum value after the addition of compound (prior to the addition of FCCP) was taken, and this was expressed as a percentage (using the baseline as 100% and FCCP as 0%) and then normalized to DMSO (100%).
Freshly isolated mouse liver mitochondria were suspended in MSK buffer containing 10 μg/ml rhodamine 123 (dequench mode), at a concentration of 500 μg/ml, and plated in an opaque black 96-well plate. […]

The test system of data set [5] is experimental autoimmune encephalomyelitis. The data set is described as follows: Relapsing-progressive EAE in ABH mice (neurological score, RotaRod, neurofilament ELISA). In kind it is in vivo, mouse. As for the experimental part: Mice were injected subcutaneously with 1 mg of freeze-dried mouse spinal cord homogenate (SCH) in Freund's adjuvant on days 0 and 7 as described previously ([71]). After the initial paralytic disease and subsequent remission, a relapse was induced by a further injection of SCH in Freund's incomplete adjuvant on day 28 to induce a relapse 7 days later ([71]). Studies were randomized, blinded, and powered as described previously ([71]). Neurological scores were graded as 0 = normal, 1 = limp tail, 2 = impaired righting reflex, 3 = hind limb paresis, 4 = complete hind limb paralysis, and 5 = moribund/death ([71]). Results are expressed as mean ± S.E. maximum or minimum neurological score and mean day of onset ± S.D. The clinical scores are presented as the mean daily neurological score ± S.E. Differences in clinical scores were assessed using non-parametric, Mann-Whitney U statistics ([71]). Motor control and coordination were assessed on an accelerating (4–40 rpm, accelerating at 6 rpm/25 s) RotaRod (ENV-575M, Med Associates Inc., St. Albans, VT) as described previously ([71]). This was performed 1 day before induction of relapse and at the termination of the experiment on day 45. RotaRod assessment was performed blinded to treatment. Animals were randomized to vehicle or treatment based on their RotaRod scores. Results are expressed as mean ± S.E. time that animals maintained rotarod activity. Differences in rota activity and quantitative neurofilament ELISA were assessed using Student's t test incorporating tests for equality of variance using Sigmaplot (Systat Software, Inc., San Jose, CA) ([71]).
At the end of the experiment, the spinal cord was removed, and an ELISA for heavy chain neurofilament on spinal cord was performed. Total nerve content of each spinal cord was estimated following calibration against neurofilament protein standards as described previously ([71], [72]).
Neurofilament level as a validated correlate of spinal cord axonal content as determined by histology was determined as follows. […] Tissues were snap-frozen and stored at −80 °C before homogenization. Tissues were homogenized in a glass homogenizer in 1 ml/100 mg of spinal cord tissue wet weight homogenization buffer (0.2 mM PMSF, 1 mM EDTA, 1 mM EGTA, 4 M urea, 10 mM Tris-HCl (Sigma), pH 7.2) plus 1:100 HALT protease inhibitor mixture (Thermo Fisher Scientific) and further homogenized by sonication twice for 10 s (Cole-Parmer Instruments, Vernon Hills, IL). Samples were spun down at 13,000 rpm in a bench top centrifuge (Eppendorf), and the supernatant was collected and stored at −80 °C before neurofilament determination. Samples were thawed on ice, and an ELISA for heavy chain neurofilament was performed. Briefly, a 96-well plate was coated overnight at 4 °C with capture antibody (1:5000; SMI35 anti-neurofilament H, Cambridge Bioscience, Cambridge, UK) in coating buffer (0.15 M Na2CO3, 0.35 M NaHCO3 (Sigma), pH 9.6). Following one wash in wash buffer (150 mM NaCl, 10 mM Tris-HCl, 0.1% Tween 20 (Sigma), pH 7.5), nonspecific binding was blocked by incubation with 5% bovine serum albumin (Sigma) in wash buffer for 1 h at room temperature. Following a wash step, samples and standards (porcine neurofilament heavy chain, Chemicon International) were diluted in wash buffer with 1% bovine serum albumin and incubated on the plate for 1 h at room temperature. Following five wash steps, the detector antibody was applied (1:1000 rabbit anti-NF200, Sigma) and incubated for a further 1 h at room temperature. The plate was washed five times, and the reporter antibody was applied (1:1000 swine anti-rabbit HRP conjugate, DAKO). Following a final five washes, tetramethylbenzidine substrate (Sigma) was applied, and color production was measured on a BioTek Synergy HT plate reader at 450 nm.
For orientation: Falling from the rotarod earlier than controls is read as motor impairment.

The subject of data set [6] is splenocytes from MOG 35-55 immunized ABH mice. The data set is described as follows: Myelin antigen (MOG 35-55)-induced T cell proliferation. The data set is classed as cell-based, mouse. The conditions noted are these: MOG residues 35–55, 5 μg/ml. As for the experimental part: ABH mice were injected subcutaneously in the flank with 100 μg of myelin oligodendrocyte glycoprotein (MOG) peptide residues 35–55 (Cambridge Research Biochemicals Ltd., Billingham, UK) emulsified in Freund's adjuvant containing 200 μg of Mycobacterium tuberculosis H37Ra (Difco, Becton Dickinson, Oxford, UK) on days 0 and 7 ([69]). Spleens were collected and prepared and analyzed as above except that mitogens were replaced with 5 μg/ml MOG 35–55 peptide, and cells were incubated for 72 h before the addition of tritiated thymidine.

Data set [7] has as its target Ca2+-mediated PT pore formation (Mus musculus, UniProt Q99KR7). The conditions noted are these: liver mitochondria.
Experimental: Briefly, C57BL/6J WT or CypD^−/− ([63]) male mice of 3–6 months were sacrificed by cervical dislocation, and their liver was removed and placed immediately into ice-cold isolation buffer (250 mM mannitol, 5 mM HEPES, 0.5 mM EGTA, pH 7.4). At 4 °C, the liver was rinsed in PBS to remove excess blood, and any fat and connective tissue was eliminated. PBS was then replaced with isolation buffer containing 1 mM PMSF, and the liver was chopped into pieces (∼2 mm in length). Tissue was then homogenized in this solution until no solid matter remained and then centrifuged at 800 × g for 10 min at 4 °C. […] Protein levels were quantified using a Thermo Scientific BCA protein quantification assay, as per the manufacturer's instructions.
Isolated mitochondria were resuspended (500 μg of protein/ml) in MSK buffer (75 mM mannitol, 25 mM sucrose, 5 mM potassium phosphate monobasic, 20 mM Tris-HCl, 100 mM KCl, and 0.1% bovine serum albumin, pH 7.4) supplemented with 10 mM succinate, 1 μM rotenone, and 1 μM Fluo5N. […] Compounds were incubated for 10 min before the plate was assayed in a Fluostar Optima plate reader, using excitation/emission filters at 480/520 nm; CaCl2 was injected approximately every 6.5 min for 80 min (12 total injections, final concentration of 75 μM). […] Percentage inhibition for each [compound] was then calculated as the percentage of the corresponding value for the untreated condition. […]
The target of data set [8] is CypA (Homo sapiens, UniProt P62937). In words: Fluorescence polarization cyclophilin binding assay, CypA. The conditions noted are these: probe 45 nM, enzyme 40 nM. On the technique in general: In fluorescence polarisation assays a small probe gives low polarisation when free and higher when bound to something large.
CypA, sequence (P62937 whole entry, species assumed): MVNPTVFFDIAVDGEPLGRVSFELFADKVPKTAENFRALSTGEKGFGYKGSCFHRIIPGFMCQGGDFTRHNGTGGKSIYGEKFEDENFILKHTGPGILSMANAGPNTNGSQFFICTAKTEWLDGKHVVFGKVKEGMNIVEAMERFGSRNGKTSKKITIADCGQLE
Text: Fluorescence polarization (FP) is inversely related to the molecular rotation of the fluorophore. Fluorophores linked to small molecules tumble faster and emit less polarized fluorescence than fluorophore-small molecules bound to proteins. FP is a convenient technique to measure affinity of ligands to cyclophilins ([59], [60]).
(§1) Titration of a single probe concentration against different enzyme concentrations was used to determine the dissociation constant (Kd). From this we also determined the enzyme concentration that would give a high enough polarization signal to measure binding affinities.
(§2) At least three replicates were used for each experiment. The percentage of DMSO in the total solution should remain lower than 1%. […] Measurements were taken after gain adjustment of control sample and 30-min incubation with a xenon flash light with filter settings for 485-nm excitation and 520-nm emission.
Data set [9] concerns the target K133I CypD (Homo sapiens, UniProt P30405, K175I). In words: Fluorescence polarization cyclophilin binding assay, CypD. The conditions noted are these: probe 45 nM, enzyme 40 nM.
Experimental: as §1, §2
Where [10] appears, read: before treatment (baseline of the JW47 group).

As usually defined, the Ki is a measure of affinity in units of concentration, obtained from inhibition or displacement.

K133I CypD, sequence (P30405 43-207 K175I): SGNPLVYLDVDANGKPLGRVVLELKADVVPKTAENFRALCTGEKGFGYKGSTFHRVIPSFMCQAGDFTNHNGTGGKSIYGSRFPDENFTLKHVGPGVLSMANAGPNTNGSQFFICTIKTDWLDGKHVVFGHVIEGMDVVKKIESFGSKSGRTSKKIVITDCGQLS
TRIM-CypA, sequence (P62937 2-165, one chain of several): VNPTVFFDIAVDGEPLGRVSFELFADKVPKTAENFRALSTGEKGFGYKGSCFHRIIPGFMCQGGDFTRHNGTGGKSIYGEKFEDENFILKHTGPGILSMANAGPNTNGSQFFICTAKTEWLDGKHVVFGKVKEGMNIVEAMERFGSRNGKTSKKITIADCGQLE
Ca2+-mediated PT pore formation, sequence (Q99KR7 30-206): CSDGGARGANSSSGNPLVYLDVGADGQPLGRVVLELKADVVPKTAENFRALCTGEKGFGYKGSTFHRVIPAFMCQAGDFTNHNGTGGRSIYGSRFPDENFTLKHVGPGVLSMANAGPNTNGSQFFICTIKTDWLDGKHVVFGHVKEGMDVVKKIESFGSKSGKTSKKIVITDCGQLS

With `CC[C@@H]1NC(=O)[C@H]([C@H](O)[C@H](C)C/C=C/CCC[n+]2cccc3ccccc32)N(C)C(=O)[C@H](C(C)C)N(C)C(=O)[C@H](CC(C)C)N(C)C(=O)[C@H](CC(C)C)N(C)C(=O)[C@@H](C)NC(=O)[C@H](C)NC(=O)[C@H](CC(C)C)N(C)C(=O)[C@H](C(C)C)NC(=O)[C@H](CC(C)C)N(C)C(=O)CN(C)C1=O` [JW47, [Gly-(1S,2R,E)-8-quinolinium-1-hydroxy-2-methyloct-4-ene]^1 CsA], the “effect on mitochondria in cortical neurons” value in [1] (40 nM) is listed as “not affected”; in data set [1] (1 μM), “significantly depolarized”. For the same molecule, the “concentration that inhibited neuronal mitochondrial membrane potential” value in [1] (rat cortical neurons) came to 1000 nM. Moreover, the “rescue of HIV-1 infectivity in TRIM-CypA cells” value in [2] was “no activity”. The “effect on T cell response, contact hypersensitivity model” value in data set [3] (0.1 mg/kg intraperitoneally daily) was “no effect”; in data set [3] (1 mg/kg intraperitoneally daily) it was “no effect”; in data set [3] (10 mg/kg intraperitoneally daily), “inhibited the T cell response”. In addition, in data set [4], the “concentration up to which mitochondrial membrane potential, oxygen consumption and ATP production were not affected” value is “up to 200 nM”. In addition, the “incidence of disease (relapse)” value in [5] (1 mg/kg intraperitoneally daily from day 33) is 14 of 14. The “onset of induced relapse” value in data set [5] (1 mg/kg intraperitoneally daily, SCH injection day 28, mean ± S.D.) came to 34.5 ± 0.7 days. In data set [5] (1 mg/kg intraperitoneally daily, day 45), the “rotorod activity during the second remission after relapse” value came out at 135.0 ± 42.9 s. Besides, in data set [5] (1 mg/kg intraperitoneally daily, p < 0.001 vs vehicle), the “minimal neurological score during the second remission” value worked out at 1.4 ± 0.3. Besides, the “maximal severity disease score” value in [5] (1 mg/kg intraperitoneally daily, score 0–5, mean ± S.E.) is reported as 3.9 ± 0.1. For the same molecule, the “loss of nerves and axons within the spinal cord, neurofilament ELISA” value in data set [5] (1 mg/kg intraperitoneally daily, vs vehicle) is “lost significantly (p < 0.01) fewer nerves”. Further, the “minimal clinical score during the first remission” value in [5] (setting [10]) came out at 0.6 ± 0.1. Besides, in data set [5] (setting [10]), the “rotorod activity on day 27 during the first remission” value was 168.8 ± 21.8 s. Moreover, the “immunosuppressive activity in antigen-driven proliferation assay” value in [6] was “markedly less immunosuppressive activity compared with CsA”. Further, in data set [7], the “effect on CRC, mitochondria from WT mice” value is on record as “significantly increased”.

As for `C/C=C/C[C@@H](C)[C@@H](O)[C@H]1C(=O)N[C@@H](CC)C(=O)N(C)[C@H](Cc2ccc(C(=O)O)cc2)C(=O)N(C)[C@@H](CC(C)C)C(=O)N[C@@H](C(C)C)C(=O)N(C)[C@@H](CC(C)C)C(=O)N[C@@H](C)C(=O)N[C@H](C)C(=O)N(C)[C@@H](CC(C)C)C(=O)N(C)[C@@H](CC(C)C)C(=O)N(C)[C@@H](C(C)C)C(=O)N1C` [SmBzCsA], the inhibitory constant (Ki) amounted to 236 ± 8.4 nM in data set [8] and 202 ± 14.1 nM in data set [9].

The record behind these values is publication PMC4813465, “Selective Inhibition of the Mitochondrial Permeability Transition Pore Protects against Neurodegeneration in Experimental Multiple Sclerosis” (The Journal of Biological Chemistry, 2015).
